Data set [1] has as its system HIV-1. As to the kind of experiment: Inhibition of HIV-1 replication in Jurkat cells (RT activity in supernatant), compound added at time zero or 4 h post-infection. It is filed as cell-based. The following applies: Human immunodeficiency virus 1, compound added at time zero or 4 h post-infection, read-out: 50% inhibition of RT activity relative to non-treated HIV-infected cells. The procedure: (§1) For biological testing, a stock solution of the free acid of Example 1 was made up in DMSO and dispensed into RPMI 1640 cell growth medium to give the desired range of concentrations. The final DMSO concentration in the medium was <0.1%. These solutions in cell growth medium were used in all of the biological tests described below.
(§2) The compound of Example 1 was tested initially for its ability to inhibit HIV-1 replication in Jurkat cells, a CD4+ human T-lymphocyte line commonly used for this purpose. Reverse transcriptase (RT) activity in the supernatant from the infected cells was used as a measure of viral replication, and the compound was added to the cultures at time zero or 4 h post-infection. Parallel cytotoxicity assays were performed in non-infected Jurkat cells to assess therapeutic selectivity.

Data set [2] can be described thus: Cytotoxicity in non-infected Jurkat cells, 4 days exposure. In kind it is cell-based. The following applies: human, up to 10^-4 M, read-out: decrease in cell viability. The procedure: as §1, §2
For data set [3], the system named is HIV-1. Put plainly: Inhibition of HIV-1 replication in Jurkat cells (RT activity), drugs added 4 h before virus (prophylaxis model). In kind it is cell-based. The conditions noted are these: for IC50: read-out: 50% inhibitory concentration (IC50), RT activity in culture supernatants; for IC95: 96 h, read-out: concentration needed to achieve the same degree of inhibition (>95% inhibition of RT activity). How it is done: The final DMSO concentration in the medium was <0.1%. These solutions in cell growth medium were used in all of the biological tests described below.
In a second evaluation, the compound salt of Example 1, AZT, and PFA were compared as inhibitors of HIV-1 replication in Jurkat cells when added to the cultures 4 h before the virus (i.e., in a prophylaxis model). The drugs were present through the length of the experiment (4 days).

A short description of data set [4]: Inhibition of Jurkat cell growth. The following applies: human; at 10^-5 M; Jurkat cells; read-out: growth inhibition of host cells. It is filed as cell-based, human.
Excerpt: (§3) FIG. 2B is a graph showing inhibition of Jurkat cell growth under the same conditions as in FIG. 2A;
as §1
(§4) In a second evaluation, the compound salt of Example 1, AZT, and PFA were compared as inhibitors of HIV-1 replication in Jurkat cells when added to the cultures 4 h before the virus (i.e., in a prophylaxis model). The drugs were present through the length of the experiment (4 days). […] Thus, while there was an approximately four-log TI for AZT in this experiment, the TI for the compound of Example 1 could not actually be estimated because the IC50 for cell growth inhibition, extrapolated from the dose-response curve, was >10^-3 M.

In data set [5] the test system is Jurkat cells. As to the kind of experiment: Inhibition of Jurkat cell growth. It is filed as cell-based, human. The conditions noted are these: Homo sapiens, Jurkat, read-out: IC50 for cell growth inhibition.
Excerpt: as §3, §1, §4

Data set [6] has as its system HIV-1. As to the kind of experiment: Inhibition of HIV-1 replication in cultured human peripheral blood leukocytes. In kind it is cell-based. The following applies: Human immunodeficiency virus 1, Leukocyte; H-PBLs; added 4 hours before virus, measured at 4 days; read-out: 50% inhibition of viral replication.
Excerpt: FIG. 3A is a graph showing inhibition of HIV-1 replication in human peripheral blood leukocytes;
as §1
(§5) The activities of the compound of Example 1, AZT, and PFA were also examined in cultured human peripheral blood leukocytes (H-PBLs) infected with HIV-1. […] In both PBLs and Jurkat cells, therefore, the antiviral potency of the compound of Example 1 resembled that of AZT, while its low cytotoxicity was more reminiscent of that of PFA.

Data set [7] can be described thus: Inhibition of growth of human peripheral blood leukocytes. It is filed as cell-based. The following applies: at 10^-4 M, H-PBLs, read-out: inhibition of PBL growth.
Excerpt: FIG. 3B is a graph showing inhibition of growth of human peripheral blood leukocytes;
as §1, §5

The test system of data set [8] is Rauscher murine leukemia virus (RLV). As to the kind of experiment: Plaque assay: inhibition of plaque formation by Rauscher murine leukemia virus in mouse fibroblast cultures. In kind it is cell-based. The following applies: for inhibition of plaque formation: added 4 hours before virus, 4 days.
Excerpt: FIG. 4A is a graph showing inhibition of plaque formation by a different retrovirus (a murine leukemia virus) in mouse fibroblast cultures;
as §1
The compound of Example 1 as well as AZT and PFA were also tested in a plaque assay for the ability to inhibit plaque formation in mouse fibroblast cultures by Rauscher murine leukemia virus (RLV), a type C retrovirus; the results are shown in FIG. 4A. Drugs were added to the cultures 4 hours before the virus, and inhibition was measured at 4 days. The cytotoxicity of all the agents to non-infected fibroblasts was also determined and found to be <50% at concentrations of up to 10^-5 M as shown in FIG. 4B. […] When AZT alone was used at a concentration of only 10^-9 M there was no effect, but when AZT and PFA were combined, each at concentrations of 10^-9 M, there was almost 50% inhibition of plaque formation even though the PFA was not used in excess.

Data set [9] has as its system simian immunodeficiency virus (SIV). As to the kind of experiment: Inhibition of SIV in cultured human lymphoblasts (CEM cells), RT activity. It is filed as cell-based. The conditions noted are these: CCRF-CEM, added 4 hours before virus, measured at 3 days, read-out: approximate IC50 for inhibition of RT activity in SIV-infected CEM cells.
Excerpt: (§6) FIG. 5A is a graph showing inhibition by AZT of retroviral propagation and of cell growth in cultured human lymphoblasts infected with simian immuno-deficiency virus;
(§7) FIG. 5B is a graph showing the results of using one embodiment of the invention in the same test as that of FIG. 5A.
as §1
(§8) The activities of AZT and of the compound of Example 1 against simian immunodeficiency virus (SIV) in cultured human lymphoblasts (CEM cells) were assayed; the results are shown in FIGS. 5A and 5B, respectively. The drugs were added to the culture 4 hours before the virus and inhibition was measured at 3 days.

The test system of data set [10] is CEM cells. Put plainly: Inhibition of CEM cell growth. The following applies: for IC50: Homo sapiens, CCRF-CEM, 72 h, read-out: approximate IC50 for CEM cell growth. It is filed as cell-based, human.
Excerpt: as §6, §7, §1, §8

Data set [11] has as its system simian immunodeficiency virus (SIV). Put plainly: Inhibition of SIV replication in monkey peripheral blood leukocytes (RT activity). It is filed as cell-based.
Excerpt: (§9) FIG. 6A is a graph showing results of a test similar to that of FIG. 5A except that monkey peripheral blood leukocytes were used; and
(§10) FIG. 6B is a graph showing inhibition by one embodiment of the invention under the same conditions as in FIG. 5B.
as §1, §8

Data set [12] concerns monkey peripheral blood leukocytes (M-PBLs). As to the kind of experiment: Growth inhibition / toxicity to monkey peripheral blood leukocytes. It is filed as cell-based. The following applies: in words.
Excerpt: as §9, §10, §1, §8

Data set [13] addresses T1, HIV-1 RT (Human immunodeficiency virus type 1 group M subtype B, UniProt P04585).
T1 construct: purified HIV-1 RT
Put plainly: Cell-free assay with purified HIV-1 RT. It is filed as biochemical.
Excerpt: as §1
To examine the question whether RT inhibition by the compound of Example 1 could by itself account for the antiretroviral effect in intact cells, the effect of the compound on RT activity was examined in a cell-free assay with purified HIV-1 RT. An IC50 value (ca. 50 μM) well in excess of the concentration needed to block viral replication was obtained. Therefore, it appears that metabolism is required in the action of the compound of Example 1 or that the compound has one or more targets other than RT in the cell.

The mark [14] stands for this setting: Human immunodeficiency virus 1, Jurkat.

Molecules are shown by their SMILES.

The results in this text go back to patent publication US5132414A, “Dideoxynucleoside-5'-phosphonoformic acid compounds” (Dana-Farber Cancer Institute, Inc., priority 1990, dated 1992).

By inhibition is commonly meant the change of the read-out against control, counted positive when it falls. `CCOC(=O)P(=O)(O)OC[C@H]1O[C@@H](n2cc(C)c(=O)[nH]c2=O)C[C@@H]1N=[N+]=[N-]` [Example 1, 3'-Azido-3'-deoxy-5'-[P-(ethoxycarbonyl)-P-Hydroxyphosphinyl]thymidine]: the IC50 in [1] was around 500 nM; in data set [3] (setting [14]), around 2 nM; in data set [5], above 1 mM; in [6] it was around 10 nM; in [9], around 10 nM; in data set [10], above 100000 nM. Moreover, the IC50 in [11] (Simian immunodeficiency virus, Leukocyte, in Primates, M-PBLs, added 4 hours before virus, read-out: 50% inhibition of RT activity (SIV replication)) is 100 nM; in [13], around 50 µM. Besides, the cytotoxicity at 96 h, 100 µM in data set [2] was below 10%. In addition, the inhibition at 0.005 µM in data set [3] (Human immunodeficiency virus 1, Jurkat, read-out: inhibition of RT activity) was above 95%. Moreover, the “increase in potency relative to AZT” value in data set [3] (Jurkat cells, HIV-1, IC50 comparison with AZT) is listed as “roughly fivefold”. The inhibition at 96 h, 10 µM in data set [4] is 20%. For the same compound, the inhibition at 100 µM in [7] was 20%. Further, the results for the “inhibition of plaque formation” value in [8] (at 10^-5 M) and in [8] (at 10^-7 M) were “almost complete inhibition” and “inactive”, respectively. Moreover, the “effectiveness in the RLV system relative to AZT or a 1:1 combination of AZT and PFA” value in [8] (comparison in words) was “less effective than AZT or a 1:1 combination of AZT and PFA”. Further, the “times less toxic to the host cells than AZT” value in [10] (CEM cells, relative to AZT) is reported as “at least 200 times”. For the same compound, in data set [12], the “toxicity to the host cell relative to AZT” value is “considerably lower than with AZT”.
Turning to `Cc1cn([C@H]2C[C@H](N=[N+]=[N-])[C@@H](CO)O2)c(=O)[nH]c1=O` [AZT, 3'-azidothymidine, reference compound], the IC95 in data set [3] (setting [14]) came to 100 µM. The IC50 in data set [3] (setting [14]) is 10 nM; in data set [6] it was around 10 nM; in data set [9], around 5 nM; in data set [10], around 2000 nM. Besides, the inhibition at 96 h, 10 µM in [4] fell in the range of 50 to 60%. Further, the inhibition at 100 µM in [7] turned out to be 80%. In addition, the results for the “inhibition of plaque formation” value in data set [8] (at 10^-7 M) and in data set [8] (at 10^-9 M) were “Complete inhibition” and “no effect”, respectively. In data set [11] (in words), the “concentrations required for inhibition of SIV replication in M-PBLs (versus CEM cells)” value is reported as “required higher AZT concentrations”. In addition, the “concentrations required for inhibition of cell growth in M-PBLs (versus CEM cells)” value in [12] was “required higher AZT concentrations”.
As for `O=C(O)P(=O)(O)O` [PFA, phosphonoformic acid], in data set [3] (setting [14]), the IC95 was found to be 1000 µM and the IC50 was 10000 nM. Further, the inhibition at 96 h, 10 µM in data set [4] was determined as 30%. In addition, the “inhibition of plaque formation” value in [8] (until the concentration reached 10^-4 M) is given as “no appreciable effect”.
